Measured values taken from patent US20230330093A1, “APPLICATION OF NITROGEN-CONTAINING SATURATED HETEROCYCLIC COMPOUND” (SHANGHAI PHARMACEUTICALS HOLDING CO., LTD., priority 2020, published 2023).
Read-outs that look alike come from different tables or passages of the source.

Assay: Plasma pharmacokinetics and bioavailability after intravenous and oral administration
Format: in vivo, cynomolgus monkeys
Settings: for Vd/F: read-out: Vss/F
Experimental: Cynomolgus monkeys (3/sex/group: weight 3-5 kg, age 5-6 years old) were obtained from SuZhou XiShan ZhongKe Laboratory Animals (Shanghai, China). Animals were housed for a 7-day acclimation period before study. The monkeys were individually caged in a controlled temperature (18-26° C.) and humidity (50±20%) animal room with an air flow of 10 plus air changes per hour with fresh air. The lighting cycle was 12 h on and 12 h off, and the monkeys were fed once a day in the morning. All animal experiments were performed in accordance with the Animal Care and Use Guidelines set by the AMMS Animal Care and Use Committee.
The compound of Formula I was intravenously or orally administered to cynomolgus monkeys fasted overnight. The doses were 1 mg/kg (intravenous), 1 mg/kg, 3 mg/kg, and 9 mg/kg (oral). Blood samples were collected from a limb vein at 0, 5, and 15 min and at […], 0.5, 1, 2, 3, 4, 6, 8, 12, and 24 h (0.2 mL for each time point) after administration. All blood samples were centrifuged immediately after collection at 10,000×g for 5 min and the plasmas were stored at −75±10° C. until analysis. Plasma samples were prepared by protein precipitation. The concentrations of the compound of Formula I in plasma were determined by the validated liquid chromatography-tandem mass spectrometry method.
The pharmacokinetic parameters such as the area under the plasma concentration-time curve (AUC), maximum plasma concentration (Cmax), time to reach Cmax (Tmax), half-life (T1/2), total body plasma clearance (CL), mean residence time (MRT) and volume of distribution at steady state (Vss) were calculated by non-compartmental analysis with WinNonlin v1.3 (Pharsight, Mountain View, CA, USA). For allometric scaling, animal pharmacokinetic data were simulated by a two-compartment model with the Kinetica 5.1 software package (v.3.0; InnaPhase, Philadelphia, PA, USA).

[1] = both sexes, cynomolgus monkey, plasma, Monkey, 1 mg/kg iv
[2] = both sexes, cynomolgus monkey, plasma, Monkey, 1 mg/kg po
[3] = both sexes, cynomolgus monkey, plasma, Monkey, 3 mg/kg po
[4] = both sexes, cynomolgus monkey, plasma, Monkey, 9 mg/kg po
[5] = both sexes, cynomolgus, cynomolgus monkey, plasma, Monkey, 3 mg/kg po
[6] = both sexes, cynomolgus, cynomolgus monkey, plasma, Monkey, 9 mg/kg po

SMILES: COC(=O)NCCCn1nc([C@@H](C)N(C(=O)[C@H]2CNCCO2)C2CC2)c2ccc(C)nc21 [compound of Formula I]
- F (Monkey, 1 mg/kg po): 3.3%
- F (Monkey, 3 mg/kg po): 8.0%
- F (Monkey, 9 mg/kg po): 11.3%
- half-life (both sexes, cynomolgus monkey, plasma, iv, 1 mg/kg, Monkey, 1 mg/kg iv): 2.73 h
- half-life (both sexes, cynomolgus monkey, plasma, po, 1 mg/kg, Monkey, 1 mg/kg po): 2.9 h
- half-life (both sexes, cynomolgus monkey, plasma, po, 9 mg/kg, Monkey, 9 mg/kg po): 5.99 h
- half-life (both sexes, cynomolgus monkey, plasma, po, 9 mg/kg, oral 1, 3, 9 mg/kg, monkey plasma): 2.73 to 5.99 h
- AUC [1]: 421 ng·h/mL
- Cmax [1]: 466 ng/mL
- MRT [1]: 0.97 h
- Vd (both sexes, cynomolgus monkey, plasma, Monkey, 1 mg/kg iv, read-out: Vss): 1.86 L/kg
- AUC [2]: 11.8 ng·h/mL
- CL/F [2]: 1410 mL/min/kg
- Cmax [2]: 3.99 ng/mL
- MRT [2]: 4.32 h
- Tmax [2]: 1 h
- Vd/F [2]: 366 L/kg
- CL/F [3]: 503 mL/min/kg
- Vd/F [3]: 104 L/kg
- AUC [4]: 426 ng·h/mL
- Cmax [4]: 263 ng/mL
- MRT [4]: 2.62 h
- Tmax [4]: 1 h
- clearance (both sexes, cynomolgus monkey, plasma, intravenous 1 mg/kg, monkeys): 32.7 mL/min/kg
- bioavailability (both sexes, cynomolgus monkey, plasma, monkeys, calculated from AUC0-24h after iv and po administration): 3.3 to 11.3%
- half-life (both sexes, cynomolgus, cynomolgus monkey, plasma, po, 3 mg/kg, Monkey, 3 mg/kg po): 3.68 h
- AUC [5]: 99.4 ng·h/mL
- Cmax [5]: 42.2 ng/mL
- MRT [5]: 3.46 h
- Tmax [5]: 1.3 h
- CL/F [6]: 353 mL/min/kg
- Vd/F [6]: 55.5 L/kg
- distribution volume (intravenous 1 mg/kg, monkeys): 1.86 L/kg
